Assay results from ChEMBL document CHEMBL2364262, “Structure-activity relationship data for chemical series of agonists of the motilin receptor (Supplementary Bioactivity Data for publication CHEMBL1141008)”.

Target: Motilin receptor (Homo sapiens, UniProt O43193)
Experiment: SUPPLEMENTARY: Agonist activity at human recombinant motilin receptor expressed in CHO cells by calcium mobilization-based FLIPR assay. Same assay as CHEMBL942680
Assay type: functional, cell-based

Motilin receptor, sequence (O43193 whole entry): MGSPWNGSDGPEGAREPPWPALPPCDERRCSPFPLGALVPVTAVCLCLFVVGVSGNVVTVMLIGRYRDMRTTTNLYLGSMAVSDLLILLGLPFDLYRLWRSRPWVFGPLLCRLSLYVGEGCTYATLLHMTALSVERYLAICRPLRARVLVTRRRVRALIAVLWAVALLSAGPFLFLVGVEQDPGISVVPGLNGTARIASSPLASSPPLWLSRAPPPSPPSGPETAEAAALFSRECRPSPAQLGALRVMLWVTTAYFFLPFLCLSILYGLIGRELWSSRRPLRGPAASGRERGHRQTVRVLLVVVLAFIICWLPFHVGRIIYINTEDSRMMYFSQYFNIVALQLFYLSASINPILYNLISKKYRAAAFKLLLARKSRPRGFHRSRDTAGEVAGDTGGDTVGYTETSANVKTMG

Structure (SMILES)	EC50
C[C@@H]1CN(Cc2ccc(CC(=O)N3CCC(Oc4ccc(F)cc4)CC3)cc2)CCN1	12.6 nM
C[C@H]1CN(Cc2ccc(CC(=O)N3CCC(Nc4ccc(C#N)cc4)CC3)cc2)CCN1	31.6 nM
C[C@H]1CN(Cc2ccc(CC(=O)N3CCC(Nc4ccc(F)c(F)c4)CC3)cc2)CCN1	7.94 nM
C[C@H]1CN(Cc2ccc(CC(=O)N3CCC(Oc4ccc(F)cc4)CC3)cc2)CCN1	20 nM
C[C@H]1CN(Cc2ccc(CC(=O)N3CCC(Oc4cccc(F)c4)CC3)cc2)CCN1	25.1 nM
C[C@H]1CN(Cc2ccc(CC(=O)N3CCC(Nc4ccc(C(F)(F)F)cc4)CC3)cc2)CCN1	10 nM
C[C@H]1CN(Cc2ccc(CC(=O)N3CCC(Nc4cccc(C(F)(F)F)c4)CC3)cc2)CCN1	6.31 nM
COc1cc(CC(=O)N2CCC(Nc3cccc(F)c3)CC2)ccc1CN1CCN[C@@H](C)C1	25.1 nM
C[C@@H]1CN(Cc2ccc(CC(=O)N3CCC(Nc4ccc(F)c(F)c4)CC3)cc2)CCN1	12.6 nM
C[C@@H]1CN(Cc2ccc(CC(=O)N3CCC(Oc4cccc(F)c4)CC3)cc2)CCN1	15.8 nM
C[C@@H]1CN(Cc2ccc(CC(=O)N3CCC(Oc4ccc(C#N)cc4)CC3)cc2)CCN1	12.6 nM
C[C@@H]1CN(Cc2ccc(CC(=O)N3CCC(Nc4ccc(C#N)cc4)CC3)cc2)CCN1	15.8 nM
C[C@@H]1CN(Cc2ccc(CC(=O)N3CCC(Nc4cccc(C#N)c4)CC3)cc2)CCN1	3.16 nM
C[C@@H]1CN(Cc2ccc(CC(=O)N3CCC(Nc4cccc(C(F)(F)F)c4)CC3)cc2)CCN1	2.51 nM
C[C@H]1CN(Cc2ccc(N(C)C(=O)c3ccc(-c4ccc(F)cc4)nc3)cc2)CCN1	1.58 nM
C[C@H]1CN(Cc2ccc(N(C)C(=O)c3ccc(-c4ccc(F)cc4)cc3)cc2)CCN1	39.8 nM
C[C@H]1CN(Cc2ccc(N(C)C(=O)C3CCN(Cc4cccc(F)c4)CC3)cc2)CCN1	5.01 nM
C[C@H]1CN(Cc2ccc(N(C)C(=O)c3ccc(-c4ccccc4F)nc3)cc2)CCN1	5.01 nM
C[C@H]1CN(Cc2ccc(N(C)C(=O)c3ccc(-c4cccc(F)c4)nc3)cc2)CCN1	1.26 nM
Cc1nc(-c2cccc(F)c2)ccc1C(=O)N(C)c1ccc(CN2CCN[C@@H](C)C2)cc1	0.631 nM
C[C@H]1CN(Cc2ccc(N(C)C(=O)c3ccc(Oc4cccc(F)c4)cc3)cc2)CCN1	2.51 nM
Cc1nc(-c2cccc(C#N)c2)ccc1C(=O)N(C)c1ccc(CN2CCN[C@@H](C)C2)cc1	1.58 nM
Cc1nc(-c2ccc(F)cc2)ccc1C(=O)N(C)c1ccc(CN2C[C@@H](C)N[C@@H](C)C2)cc1	0.398 nM
C[C@@H]1CN(Cc2ccc(N(C)C(=O)c3ccc(-c4ccc(F)cc4)nc3)cc2)C[C@H](C)N1	2 nM

Structure (SMILES)	EC50
C[C@H]1CN(Cc2ccc(N(C)C(=O)c3ccc(Oc4ccccc4F)cc3)cc2)CCN1	5.01 nM
Cc1nc(-c2ccc(F)cc2)ncc1C(=O)N(C)c1ccc(CN2CCN[C@@H](C)C2)cc1	1.58 nM
C[C@H]1CN(Cc2ccc(N(C)C(=O)c3cnc(-c4ccc(F)cc4)nc3)cc2)CCN1	5.01 nM
C[C@H]1CN(Cc2ccc(CC(=O)N3CCC(Nc4cccc(F)c4)CC3)cc2Cl)CCN1	5.01 nM
C[C@H]1CN(Cc2ccc(N(C)C(=O)c3ccc(Oc4ccccc4F)nc3)cc2)CCN1	7.94 nM
Cc1cc(N(C)C(=O)c2ccc(-c3cccc(F)c3)nc2)ccc1CN1CCN[C@@H](C)C1	0.251 nM
C[C@H]1CN(Cc2ccc(NS(=O)(=O)c3ccc(N4CCCCC4)nc3)cc2)CCN1	100 nM
C[C@H]1CN(Cc2ccc(N(C)C(=O)c3ccc(-c4cccc(C#N)c4)nc3)cc2)CCN1	7.94 nM
C[C@H]1CN(Cc2ccc(N(C)C(=O)c3ccc(Oc4cccc(C#N)c4)nc3)cc2)CCN1	3.16 nM
C[C@H]1CN(Cc2ccc(N(C)C(=O)c3ccc(-c4cccc(F)c4)nc3)c(F)c2)CCN1	6.31 nM
C[C@H]1CN(Cc2ccc(N(C)C(=O)c3ccc(Oc4cccc(F)c4)cn3)cc2)CCN1	1 nM
C[C@H]1CN(Cc2ccc(N(C)C(=O)c3ccc(Oc4ccc(F)cc4)nc3)c(F)c2)CCN1	3.16 nM
C[C@H]1CN(Cc2ccc(N(C)C(=O)c3ccc(Oc4cccc(C#N)c4)cn3)cc2)CCN1	2 nM
C[C@H]1CN(Cc2ccc(N(C)C(=O)C3CCN(Cc4ccc(F)cc4)CC3)cc2)CCN1	7.94 nM
C[C@H]1CN(Cc2ccc(N(C)C(=O)c3ccc(-c4cccc(F)c4)nc3)cc2F)CCN1	1.26 nM
CCN(C(=O)c1ccc(-c2cccc(F)c2)nc1)c1ccc(CN2CCN[C@@H](C)C2)cc1	0.794 nM
C[C@H]1CN(Cc2ccc(N(C)C(=O)c3ccc(Oc4ccc(F)cc4)nc3)nc2)CCN1	31.6 nM
C[C@H]1CN(Cc2ccc(N(C)C(=O)C3CCN(Cc4cccc(C#N)c4)CC3)cc2)CCN1	39.8 nM
C[C@H]1CN(Cc2ccc(N(C)C(=O)C3CCN(Cc4ccc(C#N)cc4)CC3)cc2)CCN1	63.1 nM
C[C@H]1CN(Cc2ccc(N(C)C(=O)c3ccc(-c4cccc(F)c4)cn3)cc2)CCN1	7.94 nM
C[C@H]1CN(Cc2ccc(N(C)C(=O)c3ccc(-c4ccc(F)cc4)cn3)cc2)CCN1	7.94 nM
CC(C)N(C(=O)c1ccc(-c2cccc(F)c2)nc1)c1ccc(CN2CCN[C@@H](C)C2)cc1	12.6 nM
C[C@H]1CN(Cc2ccc(N(C)C(=O)c3ccc(-c4cccc(C#N)c4)cn3)cc2)CCN1	39.8 nM
C[C@H]1CN(Cc2ccc(N(C)C(=O)c3ccc(C(=O)c4ccc(C(F)(F)F)cc4)cc3)cc2)CCN1	20 nM

Structure (SMILES)	EC50
COc1cccc(-c2ccc(C(=O)N(C)c3ccc(CN4CCN[C@@H](C)C4)cc3)nc2)c1	7.94 nM
Cc1cc(N(C)C(=O)c2ccc(Oc3ccc(F)cc3)nc2)ccc1CN1CCN[C@@H](C)C1	0.251 nM
COCCN(C(=O)c1ccc(-c2cccc(F)c2)nc1)c1ccc(CN2CCN[C@@H](C)C2)cc1	15.8 nM
C[C@@H]1CN(Cc2ccc(NS(=O)(=O)c3ccc(-c4ccc(F)cc4)nc3)cc2)C[C@H](C)N1	158 nM
Cc1cc(NS(=O)(=O)c2ccc(-c3ccc(F)cc3)nc2)ccc1CN1CCN[C@@H](C)C1	1.58 nM
COCCN(C(=O)c1ccc(Oc2ccc(F)cc2)nc1)c1ccc(CN2CCN[C@@H](C)C2)cc1	15.8 nM
C[C@H]1CN(Cc2ccc(N(C)C(=O)c3ccc(Oc4ccc(F)cc4)nc3)cc2Cl)CCN1	0.316 nM
CCN(C(=O)c1ccc(Oc2ccc(F)cc2)nc1)c1ccc(CN2CCN[C@@H](C)C2)cc1	0.398 nM
C[C@H]1CN(Cc2ccc(N(C)C(=O)c3ccc(N4CCC(F)CC4)nc3)cc2)CCN1	79.4 nM
C[C@H]1CN(Cc2ccc(NS(=O)(=O)c3ccc(-c4ccc(F)cc4)nc3)cc2C(F)(F)F)CCN1	1.58 nM
Cc1cc(N(C)C(=O)c2ccc(Oc3ccc(F)cc3)nc2)ncc1CN1CCN[C@@H](C)C1	2 nM
Cc1cc(NS(=O)(=O)c2cncc(-c3ccc(F)cc3)c2)ccc1CN1CCN[C@@H](C)C1	20 nM
C[C@@H]1CN(Cc2ccn(-c3cccnc3N3CCC(Nc4ccc(F)cc4)CC3)n2)C[C@H](C)N1	2 nM
C[C@@H]1CN(Cc2ccc(-c3cccnc3N3CCC(Nc4ccc(F)cc4)CC3)s2)C[C@H](C)N1	25.1 nM
C[C@@H]1CN(Cc2ccc(-c3cccnc3S(=O)(=O)N3CCC(Nc4ccccc4F)CC3)cc2F)C[C@H](C)N1	20 nM
C[C@H]1CN(Cc2ccc(-c3cccnc3C(=O)N3CCC(Nc4ccc(F)cc4)CC3)cc2)CCN1	1 nM
C[C@@H]1CN(Cc2ccn(-c3cccnc3N3CCC(Oc4ccccc4F)CC3)n2)C[C@H](C)N1	6.31 nM
C[C@@H]1CN(Cc2ccn(-c3cccnc3N3CCC(Oc4cccc(F)c4)CC3)n2)C[C@H](C)N1	2.51 nM
C[C@@H]1CN(Cc2ccn(-c3cccnc3N3CCC(Oc4ccc(F)cc4)CC3)n2)C[C@H](C)N1	1.26 nM
C[C@H]1CN(Cc2ccn(-c3cccnc3N3CCC(Oc4cccc(F)c4)CC3)n2)CCN1	0.794 nM
C[C@@H]1CN(Cc2ccc(CCC(=O)N3CCC(Nc4cccc(F)c4)CC3)cc2)C[C@H](C)N1	39.8 nM
CC(C(=O)N1CCC(Nc2cccc(F)c2)CC1)c1ccc(CN2C[C@@H](C)N[C@@H](C)C2)cc1 (stereo partly specified)	15.8 nM
C[C@@H]1CN(Cc2ccc(C(C)(C)C(=O)N3CCC(Nc4cccc(F)c4)CC3)cc2)C[C@H](C)N1	25.1 nM
